The values below come from ChEMBL document CHEMBL4732172, “Discovery, semisynthesis and neurite outgrowth-promoting activity of novel merrillianone/cycloparviforalone based esters as neurotrophic agents” (Bioorg Med Chem Lett, 2021).

Activity calls are given as the source filed them. The calls are words filed in the database; no cut-off is given here.

For data set [1], the system named is PC-12. Put plainly: Neurotrophic activity in rat PC-12 cells assessed as neurite outgrowth promoting activity in NGF-induced cells by measuring differentiation rate at 10 […] (reference value: 4.24 +/- 0.03 %). Type of data set: functional. Also on record: concentration or dose not given beside the values.
Data set [2] deals with PC-12. Put plainly: Induction of neurite outgrowth in NGF-induced rat PC-12 cells assessed as increase in average neurite length at 10 uM in presence of by methylene blue staining based light microscopy. Type of data set: functional, cell-based.
Data set [3] concerns PC-12. Put plainly: Neurotrophic activity in rat PC-12 cells assessed as neurite outgrowth promoting activity in NGF-induced cells by measuring differentiation rate at 10 […] relative to merrillianone. It counts as functional.
In data set [4] the test system is PC-12. As to the kind of experiment: Neurotrophic activity in rat PC-12 cells assessed as neurite outgrowth promoting activity in NGF-induced cells by measuring differentiation rate at 10 […] relative to cycloparviforalone. Type of data set: functional.
Data set [5] can be described thus: Hydrolytic stability in phosphate buffer with pH 3.5 assessed as retention time measured after 2 hrs by HPLC analysis. It counts as physicochemical. Particulars: pH 3.5, 2 h.
Data set [6] can be described thus: Hydrolytic stability in phosphate buffer with pH 3.5 assessed as retention time measured after 4 hrs by HPLC analysis. It counts as physicochemical. Particulars: pH 3.5, 4 h.
A short description of data set [7]: Hydrolytic stability in phosphate buffer with pH 3.5 assessed as retention time measured after 6 hrs by HPLC analysis. It counts as physicochemical. As to conditions: pH 3.5, 6 h.

Take `C[C@@H]1CC[C@@]2(O)[C@]13C[C@@]1(OC(=O)Cc4ccc(Br)cc4)OC(OC[C@@]2(C)[C@@]1(C)O)[C@@H]3O`: the Activity in the data set on PC-12 [1] is given as 6.12%. In the case of `C[C@@H]1CC[C@@]2(O)[C@]13C[C@@]1(OC(=O)CCc4ccc(Br)cc4)OC(OC[C@@]2(C)[C@@]1(C)O)[C@@H]3O`, the Activity with PC-12 [1] was determined as 6.15%. The same measure, in the same setting: for `C[C@@H]1CC[C@@]2(O)[C@]13C[C@@]1(O)OC(OC[C@@]2(C)[C@@]1(C)O)[C@@H]3O` the value was 5.75%. Still for that read-out and setting: the figure for `C[C@@H]1CC=C2[C@]13C[C@@]1(O)OC(OC[C@@]2(C)[C@@]1(C)O)[C@@H]3O` is 5.31%; for `C[C@@H]1CC=C2[C@]13C[C@@]1(O)OC(OC[C@@]2(C)[C@@]1(C)O)[C@@H]3OC(=O)CCc1ccc(Br)cc1` it is 6.03%. Still for that read-out and setting: for `C[C@@H]1CC=C2[C@]13C[C@@]1(O)OC(OC[C@@]2(C)[C@@]1(C)O)[C@@H]3OC(=O)CCC(=O)c1ccccc1` the value was 7.21%; for `C[C@@H]1CC[C@@]2(O)[C@]13C[C@@]1(OC(=O)Cc4cccc(Cl)c4)OC(OC[C@@]2(C)[C@@]1(C)O)[C@@H]3O`, 7.13%. Regarding `C[C@@H]1CC[C@@]2(O)[C@]13C[C@@]1(OC(=O)CCc4ccc(Cl)cc4)OC(OC[C@@]2(C)[C@@]1(C)O)[C@@H]3O`, the Activity in the data set with PC-12 [1] was 5.87%. Same read-out and setting: for `C[C@@H]1CC[C@@]2(O)[C@]13C[C@@]1(OC(=O)CCc4cccc(Cl)c4)OC(OC[C@@]2(C)[C@@]1(C)O)[C@@H]3O` the value was 4.57%.

For `C/C=C/C=C/C(=O)O[C@]12C[C@]34[C@H](C)CC[C@]3(O)[C@@](C)(COC(O1)[C@@H]4O)[C@@]2(C)O`, the Activity in the data set with PC-12 [1] came out at 11.74%. For the same compound, the outcome in the data set with PC-12 [2] was Active. Also, the “fold change (FC)” value in the data set on PC-12 [3] and with PC-12 [4] was 2 in each case. Take `C[C@@H]1CC=C2[C@]13C[C@@]1(O)OC(OC[C@@]2(C)[C@@]1(C)O)[C@@H]3OC(=O)CCc1cccc(Cl)c1`: the Activity with PC-12 [1] came out at 5.6%.

For the compound `C[C@@H]1CC[C@@]2(O)[C@]13C[C@@]1(OC(=O)CCc4ccc(F)cc4)OC(OC[C@@]2(C)[C@@]1(C)O)[C@@H]3O`, the Activity in the data set on PC-12 [1] turned out to be 10.41%. Further, the result in the data set with PC-12 [2] was Active. Besides, the “fold change (FC)” value with PC-12 [3] and with PC-12 [4] was 2 throughout. On to `C[C@@H]1CC[C@@]2(O)[C@]13C[C@@]1(OC(=O)Cc4ccc(F)cc4)OC(OC[C@@]2(C)[C@@]1(C)O)[C@@H]3O`, for which the Activity in the data set with PC-12 [1] amounted to 5.74%.

On to `C[C@@H]1CC[C@@]2(O)[C@]13C[C@@]1(OC(=O)CCC(=O)c4ccccc4)OC(OC[C@@]2(C)[C@@]1(C)O)[C@@H]3O`, for which, in the data set with PC-12 [1], the Activity is on record as 5.69%. Same read-out and setting: for `C[C@@H]1CC[C@@]2(O)[C@]13C[C@@]1(OC(=O)Cc4cccc(F)c4)OC(OC[C@@]2(C)[C@@]1(C)O)[C@@H]3O` the value was 6.52%; for `C[C@@H]1CC=C2[C@]13C[C@@]1(O)OC(OC[C@@]2(C)[C@@]1(C)O)[C@@H]3OC(=O)CCc1cccc(F)c1`, 4.97%; for `C[C@@H]1CC[C@@]2(O)[C@]13C[C@@]1(OC(=O)CCc4cccc(Br)c4)OC(OC[C@@]2(C)[C@@]1(C)O)[C@@H]3O`, 5.26%. As for `C[C@@H]1CC[C@@]2(O)[C@]13C[C@@]1(OC(=O)CCc4cccc(F)c4)OC(OC[C@@]2(C)[C@@]1(C)O)[C@@H]3O`, the Activity in the data set with PC-12 [1] turned out to be 6.35%. The same measure, in the same setting: the figure for `C[C@@H]1CC[C@@]2(O)[C@]13C[C@@]1(OC(=O)Cc4ccc(Cl)cc4)OC(OC[C@@]2(C)[C@@]1(C)O)[C@@H]3O` is 4.9%. Regarding `C[C@@H]1CC=C2[C@]13C[C@@]1(O)OC(OC[C@@]2(C)[C@@]1(C)O)[C@@H]3OC(=O)CCc1ccccc1`, the Activity in the data set on PC-12 [1] is given as 5.81%. Still for that read-out and setting: the figure for `C[C@@H]1CC=C2[C@]13C[C@@]1(O)OC(OC[C@@]2(C)[C@@]1(C)O)[C@@H]3OC(=O)CCc1ccc(F)cc1` is 5.43%. Same read-out and setting: the figure for `C[C@@H]1CC[C@@]2(O)[C@]13C[C@@]1(OC(=O)Cc4cccc(Br)c4)OC(OC[C@@]2(C)[C@@]1(C)O)[C@@H]3O` is 7.35%.

For `C[C@@H]1CC=C2[C@]13C[C@@]1(O)OC(OC[C@@]2(C)[C@@]1(C)O)[C@@H]3OC(=O)CCc1cccc(Br)c1`, the Activity in the data set with PC-12 [1] came out at 5.26%.

Consider `C[C@@H]1CC[C@@]2(O)[C@]13C[C@@]1(OC(=O)/C=C/c4ccccc4)OC(OC[C@@]2(C)[C@@]1(C)O)[C@@H]3O`, for which the Activity in the data set with PC-12 [1] is 5.03%. As to `C[C@@H]1CC[C@@]2(O)[C@]13C[C@@]1(OC(=O)Cc4ccc5ccccc5c4)OC(OC[C@@]2(C)[C@@]1(C)O)[C@@H]3O`, the Activity in the data set with PC-12 [1] amounted to 4.76%. The Retention_time was 15.77 min in data set [5], 15.97 min in data set [6] and 16.154 min in data set [7].

`C/C=C/C=C/C(=O)O[C@H]1C2OC[C@]3(C)C4=CC[C@@H](C)[C@@]41C[C@@](O)(O2)[C@]3(C)O`: the Activity with PC-12 [1] is given as 11.11%. For the same compound, the result in the data set with PC-12 [2] was Active. Besides, the “fold change (FC)” value with PC-12 [3] and with PC-12 [4] was 2 each time. In the case of `C[C@@H]1CC=C2[C@]13C[C@@]1(O)OC(OC[C@@]2(C)[C@@]1(C)O)[C@@H]3OC(=O)CCc1ccc(Cl)cc1`, the Activity in the data set with PC-12 [1] came to 6.05%.
